For 4 compounds, IC50, Activity and inhibition results are on record in ChEMBL document CHEMBL1150078, “A Novel Class of Non-Peptidic Endothelin Antagonists Isolated from the Medicinal Herb Phyllanthus niruri” (J Nat Prod, 1995).

The source made the active and inactive calls. The calls are words filed in the database; no cut-off is given here. Where only a bound is given, the exact number is not on record here.

Common to all, as to type: cell-based
For experiment [1], the target named is T1, Endothelin-1 receptor (Homo sapiens, UniProt P25101).
T1 sequence (P25101 whole entry): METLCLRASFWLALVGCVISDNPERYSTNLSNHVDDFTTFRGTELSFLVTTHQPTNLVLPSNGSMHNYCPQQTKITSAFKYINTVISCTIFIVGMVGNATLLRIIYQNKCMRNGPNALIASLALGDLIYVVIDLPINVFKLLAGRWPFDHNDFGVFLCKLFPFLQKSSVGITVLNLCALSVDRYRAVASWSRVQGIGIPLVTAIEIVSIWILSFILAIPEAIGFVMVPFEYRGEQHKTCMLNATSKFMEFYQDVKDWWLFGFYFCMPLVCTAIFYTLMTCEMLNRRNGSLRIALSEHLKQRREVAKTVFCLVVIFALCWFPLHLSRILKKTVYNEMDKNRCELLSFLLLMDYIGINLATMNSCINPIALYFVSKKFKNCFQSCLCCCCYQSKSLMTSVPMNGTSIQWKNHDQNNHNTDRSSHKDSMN
As to the kind of experiment: Displacement of [125I]endothelin-1 from human recombinant ETA receptor expressed in CHO cells.

The target in experiment [2] is T2, Endothelin receptor type B (Homo sapiens) (UniProt P24530).
T2 sequence (whole entry): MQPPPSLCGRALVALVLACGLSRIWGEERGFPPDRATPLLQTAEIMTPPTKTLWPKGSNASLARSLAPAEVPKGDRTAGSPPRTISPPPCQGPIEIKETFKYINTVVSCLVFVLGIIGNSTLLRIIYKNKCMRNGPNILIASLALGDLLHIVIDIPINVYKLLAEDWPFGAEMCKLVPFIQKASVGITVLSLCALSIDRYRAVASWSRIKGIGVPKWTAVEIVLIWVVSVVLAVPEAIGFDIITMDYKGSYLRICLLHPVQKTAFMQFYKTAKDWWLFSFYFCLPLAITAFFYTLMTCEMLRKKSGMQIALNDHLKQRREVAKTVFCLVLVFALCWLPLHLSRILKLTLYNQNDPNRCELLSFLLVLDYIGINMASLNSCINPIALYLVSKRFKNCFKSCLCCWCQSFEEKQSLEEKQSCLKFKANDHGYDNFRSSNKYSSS
As to the kind of experiment: Activity at human recombinant ETB receptor expressed in CHO cells assessed as inhibition of endothelin-1-induced increase in extracellular acidification rate at 100 uM by microphysiometry.

For experiment [3], the target named is T3, Endothelin receptor type B (Homo sapiens, UniProt P24530).
T3 sequence (P24530 whole entry): T2 sequence (whole entry)
As to the kind of experiment: Displacement of [125I]endothelin-1 from human recombinant ETB receptor expressed in CHO cells.

Experiment [4] concerns the target T4, Endothelin-1 receptor (Homo sapiens) (UniProt P25101).
T4 sequence (whole entry): T1 sequence (P25101 whole entry)
Put plainly: Activity at human recombinant ETA receptor expressed in CHO cells assessed as inhibition of endothelin-1-induced increase in extracellular acidification rate at 20 uM by microphysiometry.

Experiment [5] concerns the target T5, Endothelin-1 receptor (Rattus norvegicus, UniProt P26684).
T5 sequence (P26684 whole entry): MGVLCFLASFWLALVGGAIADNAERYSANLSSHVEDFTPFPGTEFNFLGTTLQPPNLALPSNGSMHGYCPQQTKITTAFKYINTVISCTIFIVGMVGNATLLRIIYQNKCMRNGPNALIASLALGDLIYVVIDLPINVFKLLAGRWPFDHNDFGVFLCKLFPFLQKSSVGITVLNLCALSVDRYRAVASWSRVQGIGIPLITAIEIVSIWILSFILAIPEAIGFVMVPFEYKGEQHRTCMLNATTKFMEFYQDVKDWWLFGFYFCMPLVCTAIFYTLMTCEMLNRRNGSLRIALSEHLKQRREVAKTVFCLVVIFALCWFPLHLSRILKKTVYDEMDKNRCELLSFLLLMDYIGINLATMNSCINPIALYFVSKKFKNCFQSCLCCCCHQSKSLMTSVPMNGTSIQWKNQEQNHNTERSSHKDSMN
Put plainly: Displacement of [125I]endothelin-1 from ETA receptor in rat A10 cells by scintillation counting.

In experiment [6] the target is T4, Endothelin-1 receptor (Homo sapiens). Put plainly: Activity at human recombinant ETA receptor expressed in CHO cells assessed as inhibition of endothelin-1-induced increase in extracellular acidification rate at 100 uM by microphysiometry.
The target in experiment [7] is T2, Endothelin receptor type B (Homo sapiens). As to the kind of experiment: Activity at human recombinant ETB receptor expressed in CHO cells assessed as inhibition of endothelin-1-induced increase in extracellular acidification rate at 20 uM by microphysiometry.

As to `COc1cc(C)c(OC)c2c1C[C@@H](C(=O)O)C[C@H]2c1ccccc1`, in experiment [1], the half-inhibitory concentration (IC50) is 160 µM.

Consider `COC[C@@H]1Cc2cc(OC)c3c(c2[C@H](c2ccc(OC)c(OC)c2)[C@H]1COC)OCO3` [HYPOPHYLLANTHIN], for which the result in experiment [2] and in experiment [7] was inactive. Also, the values for the IC50 in experiment [3], in experiment [5] and in experiment [1] were over 500 µM, 580 µM and 40 µM, respectively. The inhibition in experiment [4] amounted to 28%; in experiment [6] it was 39%.

In the case of `COC[C@@H]1Cc2cc3c(c(OC)c2[C@H](c2ccc(OC)c(OC)c2)[C@H]1COC)OCO3` [NIRTETRALIN], the IC50 in experiment [3] was over 500 µM; in experiment [5] it was 400 µM; in experiment [1], 75 µM.

Turning to `COC[C@H](Cc1ccc(OC)c(OC)c1)[C@H](COC)Cc1ccc(OC)c(OC)c1` [PHYLLANTHIN], the IC50 in experiment [3] was over 500 µM; in experiment [5], over 1000 µM; in experiment [1], over 1000 µM.
